Earlier results, collected in US20160243144A1 (Oakdene Holdings LLC, priority 2015, published 2016).

Assays:
[1] = particularly in patients with HE
[2] = given orally

| intra-subject variability in Cmax or AUC [1] [% CV] | time by which urinary excretion is essentially complete [2] [h] | urinary excretion [2] [%] | SMILES |
| --- | --- | --- | --- |
| ≥ 30 |  |  | CO[C@H]1/C=C/O[C@@]2(C)Oc3c(C)c(O)c4c(O)c(c5c(nc6cc(C)ccn65)c4c3C2=O)NC(=O)/C(C)=C\C=C\[C@H](C)[C@H](O)[C@@H](C)[C@@H](O)[C@@H](C)[C@H](OC(C)=O)[C@@H]1C [Rifaximin] |
|  | ≤ 24 | ≤ 3 | OC[C@H]1O[C@@H](O[C@@H]2[C@@H](CO)OC(O)(CO)[C@H]2O)[C@H](O)[C@@H](O)[C@H]1O (mixture of isomers) [lactulose] |
